Tests used:
[1] = tested on: RS4;11 acute lymphoblastic leukemia (ALL) subcutaneous xenograft; assay: RS4;11 ALL subcutaneous xenograft model; assay type: in vivo, NCG mice
Description: The RS4;11 cells are of acute lymphoblastic leukemia (ALL) origin and were obtained from American Type Culture Collection (ATCC CRL-1873, Manassas, VA, DC, USA). Cells were grown in RPM 1640 medium (Corning, Cat #10-040-CVR), supplemented with 10% (v/v) fetal bovine serum (Gibco, Cat #10099-141C), and 100 μg/mL of penicillin and streptomycin (Gibco, Cat #15140-122). RS4;11 cells were maintained as suspension cell cultures at 37° C. in a 5% CO2 atmosphere. Five to six-week-old female NCG mice were purchased from Gempharmatech of Information Technology Center. All animals were maintained under specific pathogen free (SPF) “full barrier” condition with free access to food and water. Mice were group-housed under a 12 h light:dark cycle (lights on at 08:00 h), at a temperature of 20-26° C. and 37-62% humidity in IVC cages (Lingyunboji (Beijing) Technology Co., Ltd.). Mice were fed with complete granulated feed with Co60 radiosterilization (Beijing Ke Ao Xie Li Feed Co., Ltd.).
(§1) On the day of implantation, RS4;11 cells were harvested and re-suspended with appropriate volume of ice cold DPBS and same volume of Matrigel (Corning, Cat #356237) to give a final concentration of 5×10^7 cells/mL. Re-suspended cells were placed on ice prior to inoculation. The right front flank region of each mouse was cleaned with 75% ethanol prior to cell inoculation. Each animal was injected subcutaneously with 1×10^7 cells in 200 μL of cell suspension in the right front flank via a 26-gauge needle. After implantation, primary tumor volume was measured in two dimensions using a caliper.
(§2) Animals were randomly assigned into 10 groups with 10 mice per group according to body weight and tumor volume (100 mm^3-200 mm^3). The groups consisted of vehicle group, 5, 15, 50 mg/kg of venetoclax with QD dosing, 5, 15, 50 mg/kg of Compound 1 with QD dosing, and 2.5, 7.5, 25 mg/kg of Compound 1 with BID dosing. Treatments were administered by oral gavage (p.o.) in a volume of 10 mL/kg body weight. Body weight was assessed immediately before dosing and volume dosed was adjusted accordingly.
(§3) Individual body weight was recorded twice weekly, with mice being monitored daily for clinical signs of toxicity for the duration of the study. Mice were euthanized using carbon dioxide when their tumor volume reached 2,000 mm^3, the tumor was ulcerated, or body weight loss exceeded 20%.
Tumor volume was calculated using the formula: V=0.5×(a×b^2) where a and b are the long and short diameters of the tumor, respectively.

[2] = tested on: MAVER-1 mantle cell lymphoma (MCL) subcutaneous xenograft; assay: MAVER-1 MCL subcutaneous xenograft model; assay type: in vivo, NCG mice
Description: MAVER-1 cells are of mantle cell lymphoma (MCL) origin and were obtained from American Type Culture Collection (ATCC CRL-3008, Manassas, VA, DC, USA). Cells were grown in RPM 1640 medium (Corning, Cat #10-040-CVR), supplemented with 10% (v/v) fetal bovine serum (Gibco, Cat #10099-141C), and 100 μg/mL of penicillin and streptomycin (Gibco, Cat #15140-122). MAVER-1 cells were maintained as suspension cell cultures at 37° C. in a 5% CO2 atmosphere. Five to six-week-old female NCG mice were purchased from Gempharmatech of Information Technology Center. All animals were maintained under specific pathogen free (SPF) “full barrier” condition with free access to food and water. Mice were group-housed under a 12 h light:dark cycle (lights on at 08:00 h), at a temperature of 21-26° C. and 44-61% humidity in IVC cages (Lingyunboji (Beijing) Technology Co., Ltd.). Mice were fed with complete granulated feed with Co60 radiosterilization (Beijing Ke Ao Xie Li Feed Co., Ltd.).
as §1, with “MAVER-1” for “RS4;11”, “1.5×10^7” for “5×10^7”, “3×10^6” for “1×10^7”
as §2, with “into 7” for “into 10”, “5, 15” for “5, 15, 50”, “2.5, 7.5” for “2.5, 7.5, 25”
as §3
Tumor volume was calculated using the formula: V=0.5×(a×b^2) where a and b are the long and short diameters of the tumor, respectively. Tumor growth inhibition (TGI) was calculated using the following formula: % TGI=100×[1−(treatedt−treatedt0)/(vehiclet−vehiclet0)] (treated t=treated tumor volume at time t, treated t0=treated tumor volume at time 0, vehicle t=vehicle tumor volume at time t and vehicle t0=vehicle tumor volume at time 0)

[3] = same total daily doses of 5 and 15 mg/kg

## CC(C)c1ccccc1[C@@H]1CCCN1C1CC2(CCN(c3ccc(C(=O)NS(=O)(=O)c4ccc(NCC5CCC(C)(O)CC5)c([N+](=O)[O-])c4)c(Oc4cnc5[nH]ccc5c4)c3)CC2)C1 (stereo partly drawn) [Compound 1, 2-((1H-pyrrolo[2,3-b]pyridin-5-yl)oxy)-N-((4-((((1r,4r)-4-hydroxy-4-methylcyclohexyl)methyl)amino)-3-nitrophenyl)sulfonyl)-4-(2-((S)-2-(2-isopropylphenyl)pyrrolidin-1-yl)-7-azaspiro[3.5]nonan-7-yl)benzamide]
[1]; 2.5 mg/kg BID × 42 p.o.
  Mean Tumor volume (Day 42) (mm^3 ± SEM): 512.5 ± 115.9 mm^3
[1]; 5 mg/kg QD × 42 p.o.
  Mean Tumor volume (Day 42) (mm^3 ± SEM): 820.9 ± 140.2 mm^3
[1]; 7.5 mg/kg BID × 42 p.o.
  Mean Tumor volume (Day 42) (mm^3 ± SEM): 252.8 ± 48.3 mm^3
[1]; 15 mg/kg QD × 42 p.o.
  Mean Tumor volume (Day 42) (mm^3 ± SEM): 312.6 ± 57.9 mm^3
[1]; 25 mg/kg BID × 42 p.o.
  Mean Tumor volume (Day 42) (mm^3 ± SEM): 136.6 ± 2.2 mm^3
[1]; 50 mg/kg QD × 42 p.o.
  Mean Tumor volume (Day 42) (mm^3 ± SEM): 141.8 ± 5.1 mm^3
[1]; oral administration at well tolerated doses
  tumor growth inhibition (in words): potently and dose-dependently inhibited tumor growth
[1]; [3]
  efficacy compared with venetoclax: significantly better efficacy when compared with venetoclax
[2]; 2.5 mg/kg BID × 17 p.o.
  Mean Tumor volume (Day 14) (mm^3 ± SEM): 511.5 ± 49.9 mm^3
  TGI (Day 14): 77%
[2]; 5 mg/kg QD × 17 p.o.
  Mean Tumor volume (Day 14) (mm^3 ± SEM): 383.5 ± 29.6 mm^3
  TGI (Day 14): 86%
[2]; 7.5 mg/kg BID × 17 p.o.
  Mean Tumor volume (Day 14) (mm^3 ± SEM): 136.2 ± 2.6 mm^3
  TGI (Day 14): 103%
[2]; 15 mg/kg QD × 17 p.o.
  Mean Tumor volume (Day 14) (mm^3 ± SEM): 140.5 ± 5.3 mm^3
  TGI (Day 14): 103%
[2]; mouse, in vivo
  tumor growth suppression (in words): potently suppressed tumor growth in a dose-dependent manner
[2]; [3]
  anti-tumor activity relative to venetoclax: showed more anti-tumor activities relative to venetoclax

## CC1(C)CCC(CN2CCN(c3ccc(C(=O)NS(=O)(=O)c4ccc(NCC5CCOCC5)c([N+](=O)[O-])c4)c(Oc4cnc5[nH]ccc5c4)c3)CC2)=C(c2ccc(Cl)cc2)C1 [Venetoclax, reference compound]
[1]; 5 mg/kg QD × 35 p.o.
  Mean Tumor volume (Day 42) (mm^3 ± SEM): >2000 mm^3
[1]; 15 mg/kg QD × 42 p.o.
  Mean Tumor volume (Day 42) (mm^3 ± SEM): 1070.6 ± 181.1 mm^3
[1]; 50 mg/kg QD × 42 p.o.
  Mean Tumor volume (Day 42) (mm^3 ± SEM): 288.4 ± 37.8 mm^3
[2]; 5 mg/kg QD × 17 p.o.
  Mean Tumor volume (Day 14) (mm^3 ± SEM): 1082.1 ± 109.4 mm^3
  TGI (Day 14): 38%
[2]; 15 mg/kg QD × 17 p.o.
  Mean Tumor volume (Day 14) (mm^3 ± SEM): 315.4 ± 23.1 mm^3
  TGI (Day 14): 91%
